Measured values: EP4122499A1, “FIBROBLAST ACTIVATION PROTEIN INHIBITORS AND USE THEREOF” (3B Pharmaceuticals GmbH, priority 2021, dated 2023)

Columns and labels:
Format in all cases: biochemical
Recombinant mouse FAP = molecular target: T1, Recombinant mouse FAP (Mus musculus, UniProt P97321); test: FRET-based FAP protease activity assay (mouse); conditions: FRET-peptide substrate, 37°C
T1 construct: purchased R&D systems 8647-SE
T1 sequence (P97321 1-761): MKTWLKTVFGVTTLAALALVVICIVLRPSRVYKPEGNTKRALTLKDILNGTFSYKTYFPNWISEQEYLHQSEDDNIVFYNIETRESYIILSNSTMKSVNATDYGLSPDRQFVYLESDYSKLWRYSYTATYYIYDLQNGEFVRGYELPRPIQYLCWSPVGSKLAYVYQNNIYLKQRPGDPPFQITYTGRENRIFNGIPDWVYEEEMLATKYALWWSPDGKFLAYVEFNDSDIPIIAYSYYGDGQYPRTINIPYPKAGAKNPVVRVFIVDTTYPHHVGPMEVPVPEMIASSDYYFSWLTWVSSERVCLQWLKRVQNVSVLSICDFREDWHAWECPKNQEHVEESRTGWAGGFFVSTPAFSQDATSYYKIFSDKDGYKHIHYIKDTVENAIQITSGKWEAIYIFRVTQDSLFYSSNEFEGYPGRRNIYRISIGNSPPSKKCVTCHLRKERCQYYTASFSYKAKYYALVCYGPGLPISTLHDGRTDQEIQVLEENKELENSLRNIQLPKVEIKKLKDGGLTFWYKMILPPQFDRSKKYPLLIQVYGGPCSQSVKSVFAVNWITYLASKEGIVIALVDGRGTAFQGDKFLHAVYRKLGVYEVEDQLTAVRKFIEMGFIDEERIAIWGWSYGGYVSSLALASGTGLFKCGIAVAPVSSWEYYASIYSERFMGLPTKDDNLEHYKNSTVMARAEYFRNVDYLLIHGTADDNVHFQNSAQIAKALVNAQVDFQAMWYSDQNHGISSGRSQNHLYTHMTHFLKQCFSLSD
Method: In order to determine the inhibitory activity a FRET-based FAP protease activity assay was established.
25 µL of a 30 µM substrate solution, diluted in assay buffer, was added. […] Four parameter logistic (4PL) curve fitting and pIC50 calculations were performed using ActivityBase software.

recombinant human PREP = molecular target: T2, recombinant human PREP (Homo sapiens, UniProt P48147); test: PREP protease activity assay; conditions: 50 µM Z-GP-AMC substrate
T2 construct: purchased R&D systems 4308-SE
T2 sequence (P48147 1-710): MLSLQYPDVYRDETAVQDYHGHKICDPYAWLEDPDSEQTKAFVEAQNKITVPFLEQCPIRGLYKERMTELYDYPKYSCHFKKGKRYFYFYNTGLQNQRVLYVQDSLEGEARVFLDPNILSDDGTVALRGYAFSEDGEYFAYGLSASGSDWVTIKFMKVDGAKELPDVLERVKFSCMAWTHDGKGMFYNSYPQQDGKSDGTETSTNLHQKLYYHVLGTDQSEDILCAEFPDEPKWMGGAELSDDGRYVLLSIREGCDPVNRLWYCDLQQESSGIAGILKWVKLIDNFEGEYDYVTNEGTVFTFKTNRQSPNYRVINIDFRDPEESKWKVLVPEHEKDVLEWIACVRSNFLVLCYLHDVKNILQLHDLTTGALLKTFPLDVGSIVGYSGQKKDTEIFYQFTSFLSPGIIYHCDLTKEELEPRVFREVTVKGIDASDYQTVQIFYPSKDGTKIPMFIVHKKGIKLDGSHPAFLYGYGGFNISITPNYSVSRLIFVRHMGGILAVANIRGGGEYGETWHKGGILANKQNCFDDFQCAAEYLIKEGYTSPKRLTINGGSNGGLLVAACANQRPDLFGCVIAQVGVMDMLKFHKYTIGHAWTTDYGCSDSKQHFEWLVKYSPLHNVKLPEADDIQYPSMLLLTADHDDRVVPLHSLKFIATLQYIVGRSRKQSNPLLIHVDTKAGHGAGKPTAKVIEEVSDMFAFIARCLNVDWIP
Method: (§1) The PREP activity assay was performed using the FACS buffer (PBS including 1% FBS, Sigma-Aldrich, Cat# D8537). […] The DPP4 activity assay was performed in DPP assay buffer (25 mM Tris, pH 8.0).
(§2) Four parameter logistic (4PL) curve fitting and pIC50 calculations were performed using ActivityBase software.

Recombinant human DPP4 = molecular target: T3, Recombinant human DPP4 (Homo sapiens, UniProt P27487); test: DPP4 protease activity assay; conditions: 20 µM GP-AMC substrate
T3 construct: purchased R&D systems 9168-SE
Method: as §1, §2

T3 sequence (P27487 whole entry): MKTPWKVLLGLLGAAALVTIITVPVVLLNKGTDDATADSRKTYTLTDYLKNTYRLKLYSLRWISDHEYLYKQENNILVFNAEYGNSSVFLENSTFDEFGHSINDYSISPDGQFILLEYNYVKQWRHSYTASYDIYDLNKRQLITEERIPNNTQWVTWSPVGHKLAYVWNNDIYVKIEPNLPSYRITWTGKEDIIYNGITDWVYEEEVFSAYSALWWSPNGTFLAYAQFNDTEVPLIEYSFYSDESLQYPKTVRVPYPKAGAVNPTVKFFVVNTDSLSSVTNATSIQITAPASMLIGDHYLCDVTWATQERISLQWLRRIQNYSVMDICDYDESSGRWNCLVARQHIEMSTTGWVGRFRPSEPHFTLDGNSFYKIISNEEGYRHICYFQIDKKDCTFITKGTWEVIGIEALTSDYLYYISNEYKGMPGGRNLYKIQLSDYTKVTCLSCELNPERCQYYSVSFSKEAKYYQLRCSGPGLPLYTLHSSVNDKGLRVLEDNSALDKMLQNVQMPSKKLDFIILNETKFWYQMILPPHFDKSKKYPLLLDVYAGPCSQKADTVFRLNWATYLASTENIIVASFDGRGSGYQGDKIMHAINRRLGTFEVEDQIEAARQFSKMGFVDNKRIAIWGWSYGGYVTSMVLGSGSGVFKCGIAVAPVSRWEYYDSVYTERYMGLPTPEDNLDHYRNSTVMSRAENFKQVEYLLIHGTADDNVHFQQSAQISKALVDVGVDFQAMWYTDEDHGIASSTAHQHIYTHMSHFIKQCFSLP

O=C(O)CN1CCN(CC(=O)O)CCN(CC(=O)N2CCN(CCNC(=O)c3ccc(-c4ccc5nccc(C(=O)NCC(=O)N6C[C@@H](F)C[C@H]6C(=O)c6nc7ccccc7o6)c5c4)cc3)CC2)CCN(CC(=O)O)CC1 [drawing 360]
pIC50 (mouseFAP) (Recombinant mouse FAP): 7.9 | pIC50 (PREP) (recombinant human PREP): 7.3 | pIC50 (DPP4) (Recombinant human DPP4): <6

O=C(O)CN1CCN(CC(=O)O)CCN(CC(=O)N2CCN(CCNC(=O)c3ccc(-c4ccc5nccc(C(=O)NCC(=O)N6CCC[C@H]6C(=O)c6nc7ccccc7o6)c5c4)cn3)CC2)CCN(CC(=O)O)CC1 [drawing 361]
pIC50 (mouseFAP) (Recombinant mouse FAP): 7.8 | pIC50 (PREP) (recombinant human PREP): 7.9 | pIC50 (DPP4) (Recombinant human DPP4): <6
